SMILES strings stand for the structures. Where “and” joins values, the source holds several entries; their conditions need not be identical. Identical values can stand only once.

For the test, the target named is T1, N-terminal 6His-tagged ROCK2 catalytic domain 11-552 (Homo sapiens, UniProt O75116).
T1 construct: N-terminal 6His-tagged ROCK2 catalytic domain 11-552; 6His (N); purchased Dundee University, UK; host or cells: baculovirus expression system
T1 sequence (O75116 11-552): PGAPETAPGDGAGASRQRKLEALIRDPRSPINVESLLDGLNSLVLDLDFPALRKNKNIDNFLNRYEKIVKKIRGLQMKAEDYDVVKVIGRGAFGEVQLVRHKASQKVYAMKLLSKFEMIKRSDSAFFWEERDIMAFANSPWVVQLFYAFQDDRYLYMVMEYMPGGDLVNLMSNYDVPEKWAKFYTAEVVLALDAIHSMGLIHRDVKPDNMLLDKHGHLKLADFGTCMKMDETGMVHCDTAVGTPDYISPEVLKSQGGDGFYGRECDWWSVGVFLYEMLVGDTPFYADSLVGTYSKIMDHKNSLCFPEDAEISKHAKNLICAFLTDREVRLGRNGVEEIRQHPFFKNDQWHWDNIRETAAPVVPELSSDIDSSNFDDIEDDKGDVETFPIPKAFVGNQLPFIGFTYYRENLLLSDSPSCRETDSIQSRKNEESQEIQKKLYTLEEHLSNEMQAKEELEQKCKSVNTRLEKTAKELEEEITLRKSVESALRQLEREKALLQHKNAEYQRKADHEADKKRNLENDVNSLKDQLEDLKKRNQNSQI
Nature of the test: ROCK2 binding activity: ROCK2 inhibition, ADP-Glo Kinase Assay. Type of test: biochemical. To be noted: 1.25 nM ROCK2, 100 μM long S6 peptide, 20 μM ATP; 1 hour pre-incubation; read-out: ADP-Glo kinase activity assay ROCK2 Category. The protocol:
Assay for ROCK2 inhibition was performed using the protein construct N-terminal 6His-tagged ROCK2 catalytic domain 11-552 (Dundee University, UK). Protein was purified from a baculovirus expression system. Long S6 peptide ([…]) was used as substrate. Kinase reactions were carried out in 15 μl volume in a 96-well plate (black, half area) using 1.25 nM constitutively active ROCK2 kinase, 100 μM long S6 peptide, 20 μM ATP and test compound in DMSO (or DMSO only for controls). The final concentration of DMSO was 1%. Assay buffer was 50 mM HEPES pH 7.5 supplemented with 0.2 mM EDTA, 10 mM magnesium acetate, 0.01% Tween-20, 1 mM DTT and 0.01% BSA. Test compounds were pre-incubated with ROCK2 kinase for 1 hour before addition of ATP and long S6 peptide. After incubation for a further 1 hour, the amount of ADP produced was measured using ADP-Glo Kinase Assay (Promega) as per manufacturer's instructions. The luminescence was measured on a PHERAstar FS (BMG Labtech). The concentration of test compound required to inhibit ADP production by 50% (the IC50) was calculated using a four-parameter logistic function with software by Dotmatics.
The category “+” refers to compounds with a ROCK2 IC50 value of >10 μM. The category “++” refers to compounds with a ROCK2 IC50 value of 10 to 3 μM. The category “+++” refers to compounds with a ROCK2 IC50 value of 3 to 0.3 μM. The category “++++” refers to compounds with a ROCK2 IC50 value of <0.3 μM.
With `COc1cc(-c2nnc(Nc3ccc4[nH]ncc4c3)[nH]2)ccc1OCc1nnc(C)o1` [Example 40], the IC50 was in the range of 300 to 3000 nM.

Consider `CCNC(=O)c1ccc(-c2nc(Nc3ccc4[nH]ncc4c3Cl)n(C)n2)cc1C#N` [Example 358], for which the IC50 was below 300 nM.

As to `COc1ccc(F)c(-c2nc(Nc3ccc4[nH]ncc4c3Cl)n(C)n2)c1` [Example 114], the IC50 was below 300 nM.

As to `CC(C)Oc1ccc(-c2nc(Nc3ccc4[nH]ncc4c3Cl)n(C)n2)cn1` [Example 103], the IC50 is below 300 nM.

`COc1cc(-c2nc(Nc3ccc4[nH]ncc4c3C3CC3)n(C)n2)ccc1C(=O)NC(C)C` [Example 273]: the IC50 was below 300 nM.

Take `COc1cc(-c2nc(Nc3ccc4[nH]ncc4c3C)n(C)n2)ccc1C(=O)NCC(F)(F)F` [Example 178]: the IC50 is below 300 nM.

With `COc1cc(-c2nc(Nc3ccc4[nH]ncc4c3Cl)n(C)n2)ccc1OCC(=O)N[C@@H](C)C(F)(F)F` [Example 218], the IC50 is below 300 nM.

`Cn1nc(-c2ccc(C(=O)N3CCNC(C(F)(F)F)C3)cc2)nc1Nc1ccc2[nH]ncc2c1C1CC1` (stereo not drawn) [Example 307]: the IC50 was in the range of 300 to 3000 nM.

For the compound `COc1cc(-c2nc(Nc3ccc4[nH]ncc4c3C)n(CC(C)C)n2)ccc1OCC(=O)NC(C)C` [Example 452], the IC50 was below 300 nM.

In the case of `Cn1nc(-c2ccc3c(c2)CCNC3=O)nc1Nc1ccc2[nH]ncc2c1C1CC1` [Example 377], the IC50 is below 300 nM.

For `CCc1c(Nc2nc(-c3ccc(C(=O)NC(C)C(F)(F)F)cc3)nn2C)ccc2[nH]ncc12` (stereo not drawn) [Example 322], the IC50 is below 300 nM.

For the compound `COc1cc(-c2nc(Nc3ccc4[nH]ncc4c3Cl)n(C)n2)ccc1C(=O)NC1CN(C)C1` [Example 267], the IC50 is below 300 nM.

Consider `O=C(NCCOc1ccc(-c2nnc(Nc3ccc4[nH]ncc4c3)[nH]2)cc1)N1CCCC1` [Example 225], for which the IC50 was 300 to 3000 nM.

Take `COc1cc(OCC(=O)NC(C)C)ccc1-c1nc(Nc2ccc3[nH]ncc3c2Cl)n(C)n1` [Example 353]: the IC50 was below 300 nM.

Turning to `Cc1c(Nc2nc(-c3ccc(C(=O)NCC(F)(F)F)nc3)nn2C)ccc2[nH]ncc12` [Example 418], the IC50 lay within 300 to 3000 nM.

For `COc1cc(-c2nc(Nc3ccc4[nH]ncc4c3Cl)n(C(C)C)n2)ccc1OCC(=O)NC(C)C` [Example 145], the IC50 was below 300 nM.

With `Cn1nc(-c2ccnc(N)c2)nc1Nc1ccc2[nH]ncc2c1Cl` [Example 133], the IC50 is 300 to 3000 nM.

`C=Cc1c(Nc2nc(-c3ccc(C(=O)NCC)cc3)nn2C)ccc2[nH]ncc12` [Example 426]: the IC50 was below 300 nM.

`CCc1c(Nc2nc(-c3ccc(C(=O)NCC(C)C)cc3)nn2C)ccc2[nH]ncc12` [Example 320]: the IC50 is below 300 nM.

On to `COCCn1cc(-c2nc(Nc3ccc4[nH]ncc4c3Cl)n(C)n2)cn1` [Example 115], for which the IC50 was below 300 nM.

As to `Cn1nc(-c2ccc(N3CCOCC3)cc2)nc1Nc1ccc2[nH]ncc2c1Cl` [Example 102], the IC50 is below 300 nM.

For `CN1CC(NC(=O)c2ccc(-c3nc(Nc4ccc5[nH]ncc5c4Cl)n(C)n3)cc2)C1` [Example 263], the IC50 lay within 300 to 3000 nM.

`Cn1nc(-c2cncc(O)c2)nc1Nc1ccc2[nH]ncc2c1Cl` [Example 129]: the IC50 fell in the range of 300 to 3000 nM.

Consider `CC(C)NC(=O)COc1cc(F)c(-c2nc(Nc3ccc4[nH]ncc4c3Cl)n(C)n2)cc1F` [Example 369], for which the IC50 is below 300 nM.

Regarding `CCNC(=O)c1ccc(-c2nc(Nc3ccc4[nH]ncc4c3Cl)n(C)n2)c2cccnc12` [Example 373], the IC50 was in the range of 300 to 3000 nM.

`Cn1nc(-c2ccccc2N)nc1Nc1ccc2[nH]ncc2c1Cl` [Example 123]: the IC50 lay in the range of 300 to 3000 nM.

Regarding `COc1cc(-c2nc(Nc3ccc4[nH]ncc4c3F)n(C)n2)ccc1C(=O)NCC(F)(F)F` [Example 184], the IC50 was 300 to 3000 nM and < 300 nM.

Regarding `CC(C)NS(=O)(=O)COc1ccc(-c2n[nH]c(Nc3ccc4[nH]ncc4c3)n2)cc1` [Example 226, 1-[4-[5-(1H-indazol-5-ylamino)-4H-1,2,4-triazol-3-yl]phenoxy]-N-isopropyl-methanesulfonamide], the IC50 is below 300 nM.

Take `COCc1ccc(-c2nc(Nc3ccc4[nH]ncc4c3Cl)n(C)n2)cc1` [Example 63]: the IC50 was below 300 nM.

For `NC1(COc2ccc(-c3nnc(Nc4ccc5[nH]ncc5c4)[nH]3)cc2)COC1` [Example 228, N-[5-[4-[(3-aminooxetan-3-yl)methoxy]phenyl]-4H-1,2,4-triazol-3-yl]-1H-indazol-5-amine], the IC50 lay within 300 to 3000 nM.

In the case of `CNC(=O)c1ccc(-c2nc(Nc3ccc4[nH]ncc4c3Cl)n(C)n2)cc1OC` [Example 174], the IC50 is below 300 nM.

Consider `Cn1nc(-c2ccc(C(=O)NCC(C)(C)O)cc2)nc1Nc1ccc2[nH]ncc2c1C1CC1` [Example 286], for which the IC50 was below 300 nM.

Turning to `Cn1nc(-c2ccc(C(=O)NC3CCCCC3O)cc2)nc1Nc1ccc2[nH]ncc2c1C1CC1` (stereo not drawn) [Example 305], the IC50 was below 300 nM.

Turning to `COCCn1nc(-c2ccc(C(=O)NCC(F)(F)F)c(C)c2)nc1Nc1ccc2[nH]ncc2c1C` [Example 454], the IC50 is below 300 nM.

`COc1cc(C(=O)NCC(F)(F)F)ccc1-c1nc(Nc2ccc3[nH]ncc3c2C2CC2)n(C)n1` [Example 278]: the IC50 was below 300 nM.

Regarding `Cn1nc(-c2ccc(CN3CCOCC3)cc2)nc1Nc1ccc2[nH]ncc2c1Cl` [Example 105], the IC50 was below 300 nM.

In the case of `Cn1nc(-c2ccc(C(=O)NCC(C)(F)F)cc2)nc1Nc1ccc2[nH]ncc2c1C1CC1` [Example 338, 4-[5-[(4-cyclopropyl-1H-indazol-5-yl)amino]-1-methyl-1,2,4-triazol-3-yl]-N-(2,2-difluoropropyl)benzamide], the IC50 is below 300 nM.

For `Cn1nc(-c2ccc(C(=O)Nc3cccnc3)cc2)nc1Nc1ccc2[nH]ncc2c1Cl` [Example 260], the IC50 was below 300 nM.

In the case of `CCNC(=O)c1ccc(-c2nc(Nc3ccc4[nH]ncc4c3Cl)n(C)n2)c(OC)c1` [Example 347], the IC50 was below 300 nM.

For `CNC(=O)Cc1ccc(-c2nc(Nc3ccc4[nH]ncc4c3Cl)n(C)n2)cc1OC` [Example 57], the IC50 lay within 300 to 3000 nM.

For `COc1cc(-c2nc(Nc3ccc4[nH]ncc4c3C3CC3)n(C)n2)ccc1C(=O)NC1CN(C)C1` [Example 275], the IC50 is 300 to 3000 nM.

For `CN(C)c1ccc(-c2nc(Nc3ccc4[nH]ncc4c3Cl)n(C)n2)cn1` [Example 127], the IC50 is 300 to 3000 nM.

With `CC(C)NC(=O)COc1ccc(-c2nc(Nc3ccc4[nH]ncc4c3)n(C)n2)c(C(F)(F)F)c1` [Example 402], the IC50 is below 300 nM.

For the compound `COc1cc(-c2nc(Nc3ccc4[nH]ncc4c3Cl)n(C)n2)ccc1OCC(=O)NC1CNC1` [Example 48], the IC50 was below 300 nM.

Turning to `Cc1cc(-c2nc(Nc3ccc4[nH]ncc4c3Cl)n(C)n2)n(C)n1` [Example 107], the IC50 lay in the range of 300 to 3000 nM.

Consider `COc1cccc(-c2nnc(Nc3ccc4[nH]ncc4c3)[nH]2)c1` [Example 2], for which the IC50 was in the range of 300 to 3000 nM.

Turning to `COc1cc(-c2nc(Nc3ccc4[nH]ncc4c3Cl)n(C)n2)ccc1OCC(=O)NC1CCC(O)CC1` (stereo not drawn) [Example 212], the IC50 is below 300 nM.

Regarding `CC(C)NC(=O)COc1ccc(-c2nnc(Nc3ccc4[nH]ncc4c3)[nH]2)c(F)c1` [Example 25], the IC50 was 300 to 3000 nM.

(Values after patent publication US11497751B2, “Modulators of Rho-associated protein kinase” (Redx Pharma PLC, priority 2018, dated 2022).)
